# In ChEMBL document CHEMBL4219178, “Synthesis of (aminoalkyl)cycleanine analogues: cytotoxicity, cellular uptake, and apoptosis induction in ovarian cancer cells” (Bioorg Med Chem Lett, 2018):
# Active and inactive are the calls of the source. No cut-off for these calls is given here.
# Experiments:
# A2780 [1] = assay: Antiproliferative activity against human A2780 cells after 72 hrs by SRB assay; type: functional, cell-based; settings: A2780, 72 h
# IGROV-1 [2] = assay: Antiproliferative activity against human IGROV1 cells after 72 hrs by SRB assay; type: functional, cell-based; settings: IGROV-1, 72 h
# [3] = Cytotoxicity against human ovarian epithelial cells assessed as reduction in cell viability after 72 hrs by SRB assay; type: cell-based
# OVCAR-8 [4] = assay: Induction of apoptosis in human OVCAR8 cells assessed as cell detachment at 10 to 20 uM incubated for 24 to 48 hrs by phase contrast light microscopy; type: functional, cell-based
# OVCAR-8 [5] = assay: Antiproliferative activity against human OVCAR8 cells after 72 hrs by SRB assay; type: functional, cell-based; settings: OVCAR-8, 72 h
# OVCAR-8 [6] = assay: Induction of apoptosis in human OVCAR8 cells assessed as induction of PARP-1 cleavage at 20 uM after 48 hrs by Western blot; type: functional, cell-based
# OVCAR-8 [7] = assay: Induction of apoptosis in human OVCAR8 cells assessed as early apoptotic cells at 20 uM after 48 hrs by Annexin V-FITC/propidium iodide based flow cytometry (reference value: 4%); type: functional
# OVCAR-8 [8] = assay: Cell cycle arrest in human OVCAR8 cells assessed as decrease in G0/G1 phase at 20 uM after 48 hrs by propidium iodide based flow cytometry; type: functional
# A2780 [9] = assay: Induction of apoptosis in human A2780 cells assessed as induction of caspase 3/7 activity at 20 uM incubated for 48 hrs by caspase-Glo 3/7 reagent based luminescence assay; type: functional, cell-based
# [10] = Selectivity index, ratio of IC50 for human ovarian epithelial cells to IC50 for human OVCAR8 cells; type: toxicity; settings: human ovarian epithelial cells versus OVCAR8 cells, read-out: Ratio IC50
# OVCAR-8 [11] = assay: Cell cycle arrest in human OVCAR8 cells assessed as accumulation at subG1 phase at 20 uM after 48 hrs by propidium iodide based flow cytometry; type: functional
# OVCAR-8 [12] = assay: Induction of apoptosis in human OVCAR8 cells assessed as cell shrinkage at 10 to 20 uM incubated for 24 to 48 hrs by phase contrast light microscopy; type: functional, cell-based
# OVCAR-8 [13] = assay: Induction of apoptosis in human OVCAR8 cells assessed as late apoptotic cells at 20 uM after 48 hrs by Annexin V-FITC/propidium iodide based flow cytometry (reference value: 5%); type: functional
# OVCAR-8 [14] = assay: Induction of apoptosis in human OVCAR8 cells assessed as induction of caspase 3/7 activity at 20 uM incubated for 48 hrs by caspase-Glo 3/7 reagent based luminescence assay; type: functional, cell-based
# [15] = Selectivity index, ratio of IC50 for human ovarian epithelial cells to IC50 for human IGROV1 cells; type: toxicity; settings: human ovarian epithelial cells versus IGROV1 cells, read-out: Ratio IC50
# [16] = Drug uptake in human OVCAR8 cells at 20 uM after 48 hrs by Alexa 488 azide dye-based confocal fluorescence microscopy; type: ADME, cell-based; settings: ovcar-8, 48 h
# OVCAR-8 [17] = assay: Induction of apoptosis in human OVCAR8 cells assessed as viable cells at 20 uM after 48 hrs by Annexin V-FITC/propidium iodide based flow cytometry (reference value: 84%); type: functional; settings: OVCAR-8, 48 h, read-out: Activity
# IGROV-1 [18] = assay: Induction of apoptosis in human IGROV1 cells assessed as induction of caspase 3/7 activity at 20 uM incubated for 48 hrs by caspase-Glo 3/7 reagent based luminescence assay; type: functional, cell-based
# OVCAR-8 [19] = assay: Induction of apoptosis in human OVCAR8 cells assessed as nucleus condensation at 10 to 20 uM incubated for 24 to 48 hrs by phase contrast light microscopy; type: functional, cell-based
# [20] = Selectivity index, ratio of IC50 for human ovarian epithelial cells to IC50 for human A2780 cells; type: toxicity; settings: human ovarian epithelial cells versus A2780 cells, read-out: Ratio IC50
IC50 (A2780 [1]) [µM],IC50 (OVCAR-8 [5]) [µM],SMILES,IC50 (IGROV-1 [2]) [µM],IC50 [3] [µM],Activity (OVCAR-8 [4]),Activity (OVCAR-8 [6]),Activity (OVCAR-8 [7]) [%],Activity (OVCAR-8 [8]),Activity (A2780 [9]),selectivity ratio [10],Activity (OVCAR-8 [11]),Activity (OVCAR-8 [12]),Activity (OVCAR-8 [13]) [%],Activity (OVCAR-8 [14]),selectivity ratio [15],Drug uptake [16],viability at 20 µM (OVCAR-8 [17]) [%],Activity (IGROV-1 [18]),Activity (OVCAR-8 [19]),selectivity ratio [20]
6.3,5.6,C#CCNCc1c2c3c(c(OC)c1OC)Oc1ccc(cc1)C[C@@H]1c4c(cc(OC)c(OC)c4Oc4ccc(cc4)C[C@H]3N(C)CC2)CCN1C,6.1,32,Active,Active,11,Active,Active,6,Active,Active,38,Active,5,Active,50,Active,Active,5
3.6,5.2,COc1cc2c3c(c1OC)Oc1ccc(cc1)C[C@@H]1c4c(c(CN(C)C)c(OC)c(OC)c4Oc4ccc(cc4)C[C@H]3N(C)CC2)CCN1C,4.4,10,Active,Active,13,Active,Active,2,Active,Active,25,Active,2,,51,Active,Active,3

SMILES,IC50 (A2780 [1]) [µM],IC50 (OVCAR-8 [5]) [µM],IC50 (IGROV-1 [2]) [µM],IC50 [3] [µM],Activity (OVCAR-8 [4]),Activity (OVCAR-8 [6]),Activity (OVCAR-8 [7]) [%],Activity (OVCAR-8 [8]),Activity (A2780 [9]),selectivity ratio [10],Activity (OVCAR-8 [11]),Activity (OVCAR-8 [12]),Activity (OVCAR-8 [13]) [%],Activity (OVCAR-8 [14]),selectivity ratio [15],Drug uptake [16],viability at 20 µM (OVCAR-8 [17]) [%],Activity (IGROV-1 [18]),Activity (OVCAR-8 [19]),selectivity ratio [20]
COc1cc2c3c(c1OC)Oc1ccc(cc1)C[C@@H]1c4c(cc(OC)c(OC)c4Oc4ccc(cc4)C[C@H]3N(C)CC2)CCN1C,7.6,10,14,35,,,,,,3,,,,,3,Not Active,,,,5
